In patent US20120027842A1, “TOPICAL FORMULATIONS OF FLAP INHIBITORS FOR ADMINISTRATION TO AN EYE” (Amira Pharmaceuticals, Inc., priority 2008, published 2012):

Key:
[1] = Solubility in 10% beta-hydroxypropyl cyclodextrin (BHPC) in water; format: physicochemical; settings: Na salt; at 1 mg/mL
Description: In one aspect, aqueous ophthalmic solutions that include a FLAP inhibitor compounds were prepared by dissolving a FLAP inhibitor compound in 10% beta-hydroxypropyl cyclodextrin (BHPC) in water. Using this formulation, the following compounds were soluble at 1 mg/mL: Compound A (Na salt), Compound B (Na salt), Compound C (Na salt), Compound I (Na salt), Compound J (Na salt), Compound G (Na salt).

[2] = system: RSV (Long strain, serotype A); assay: Mouse model of RSV-infected eye: ocular pathology; format: in vivo, BALB/c mice
Description: (§1) A mouse model of respiratory syncytial virus (RSV) eye infection is used to test the effects of ocular application of a FLAP inhibitor compound on RSV-induced ocular immunopathology (Bitko V, et al., J. Virol. 2007; 81(2):783-90; Bitko V, et al., Nat. Med. 2005; 11(1):50-5). Each mouse eye is topically treated with 60 ng of FLAP inhibitor compound or vehicle (sterile saline) in a volume of 2 μl. The FLAP inhibitor compound is instilled 40 min after virus inoculum and then once daily over the entire duration of the protocol (14 days).
Instillation of virus and inhibitor in the eye. Female BALB/c mice, 6 to 8 weeks old, were purchased from Charles River Laboratories. RSV (Long strain, serotype A) was grown on HEp-2 cells and purified on sucrose layers to a concentration of 10^11 PFU (Bitko et al., Nat. Med. 11:50-55, 2005). […]
Ocular pathology. Ocular disease was evaluated with a slit lamp biomicroscope as described previously (Bitko V, et al., J. Virol. 2007; 81(2):783-90) 15; Girgis et al., Invest. […] Pathology was scored on a scale of 0 to 5 as follows: 0=clear eye; 1=slight redness in the corners; 2=moderate redness and injection; 3=conjunctival and corneal injection with ciliary flush; 4=extensive injection, generally associated with some mucus; 5=most extensive injection, associated with mucus. Eyes were examined in a coded fashion with the reader unaware of the treatment given. […]

[3] = system: IL-4; assay: Mouse model of RSV-infected eye: Interleukin-4 (IL-4) measurements in eye homogenates; format: in vivo, BALB/c mice; settings: topical treatment of RSV-infected mouse eyes, 60 ng/2 μL daily
Description: as §1
(§2) Instillation of virus and inhibitor in the eye. Female BALB/c mice, 6 to 8 weeks old, were purchased from Charles River Laboratories. RSV (Long strain, serotype A) was grown on HEp-2 cells and purified on sucrose layers to a concentration of 10^11 PFU (Bitko et al., Nat. Med. 11:50-55, 2005). Dilutions were done in phosphate-buffered saline (PBS) immediately before use to a final concentration of 10^4 PFU/2 μL as needed. A similarly diluted sucrose solution was used in sham-infected control mice. Mice were anesthetized by intraperitoneal injection of pentobarbital (50 mg/kg), and virus in 2 μL PBS was dropped into the corneal surface and massaged in with closed eyelids. The day of the inoculation was considered day 0. […]

[4] = system: RSV; assay: Mouse model of RSV-infected eye: RSV viral load, RNA and protein in eye and lung; format: in vivo, BALB/c mice; settings: ocular application to RSV-infected mice
Description: as §1
Instillation of virus and inhibitor in the eye. Female BALB/c mice, 6 to 8 weeks old, were purchased from Charles River Laboratories. RSV (Long strain, serotype A) was grown on HEp-2 cells and purified on sucrose layers to a concentration of 10^11 PFU (Bitko et al., Nat. Med. 11:50-55, 2005). Dilutions were done in phosphate-buffered saline (PBS) immediately before use to a final concentration of 10^4 PFU/2 μL as needed. A similarly diluted sucrose solution was used in sham-infected control mice. Mice were anesthetized by intraperitoneal injection of pentobarbital (50 mg/kg), and virus in 2 μL PBS was dropped into the corneal surface and massaged in with closed eyelids. The day of the inoculation was considered day 0. The FLAP inhibitor Compound C was diluted in PBS to 60 ng/2 μL just prior to application of 2 μL 40 minutes after the RSV inoculation on day 0 and then each day.
RSV RNA and protein: RSV is assayed in the ocular tissue on various days using both Western blot and viable virus assay (plaque forming unit; pfu) as described before. […] is quantified by RT-PCR. RSV RNA and protein were measured in the eye and lung (Urnowey et al., BMC Microbiol. 6:26, 2006).
Compound C reduced RSV in the lung.
Infection of an eye eventually transmits into the lung, causing a standard respiratory infection. […] Thus, it is of interest to monitor the lung infection to determine if the ocular application of the FLAP inhibitor compound has any effect on virus replication and quantity of virus in the lung. […]

[5] = system: CysLTs; assay: Mouse model of RSV-infected eye: CysLT measurements in eye homogenates (EIA); format: in vivo, BALB/c mice; settings: topical treatment of RSV-infected mouse eyes, 60 ng/2 μL daily
Description: as §1, §2

[6] = set-up: species or system BALB/c mice; settings: mouse, in vivo, 10 mg/kg

In the case of `COc1cnc(-c2ccc(Cn3c(CC(C)(C)C(=O)O)c(SC(C)(C)C)c4cc(OCc5ccc(C)cn5)ccc43)cc2)nc1` [Compound A, 3-[3-tert-Butylsulfanyl-1-[4-(5-methoxy-pyrimidin-2-yl)-benzyl]-5-(5-methyl-pyridin-2-ylmethoxy)-1H-indol-2-yl]-2,2-dimethyl-propionic acid], the “solubility in 10% beta-hydroxypropyl cyclodextrin (BHPC) in water” value [1] is reported as “soluble”.
With `COc1cnc(-c2ccc(Cn3c(CC(C)(C)C(=O)O)c(SC(C)(C)C)c4cc(OCc5cnc(C)cn5)ccc43)cc2)nc1` [Compound B, 3-[3-tert-Butylsulfanyl-1-[4-(5-methoxy-pyrimidin-2-yl)-benzyl]-5-(5-methyl-pyrazin-2-ylmethoxy)-1H-indol-2-yl]-2,2-dimethyl-propionic acid] the “solubility in 10% beta-hydroxypropyl cyclodextrin (BHPC) in water” value [1] was “soluble”.
In the case of `COc1cnc(-c2ccc(Cn3c(CC(C)(C)C(=O)O)c(SC(C)(C)C)c4cc(OC[C@@H]5Cc6ccccc6N5C(C)=O)ccc43)cc2)nc1` [Compound C, 3-{5-((S)-1-Acetyl-2,3-dihydro-1H-indol-2-ylmethoxy)-3-tert-butylsulfanyl-1-[4-(5-methoxy-pyrimidin-2-yl)-benzyl]-1H-indol-2-yl}-2,2-dimethyl-propionic acid], the “gummy residue and mucin build up in infected eyes” value ([2]; ocular application 60 ng/2 μL per eye daily, day 8) is reported as “clear of gummy residue and mucin build up”, the “RSV eye pathology score (scale of 0 to 5)” value ([2]; ocular application 60 ng/2 μL per eye, 40 min after RSV then daily, days 2-14 after RSV challenge) is reported as “reduces the pathology score across all observation days” and the “solubility in 10% beta-hydroxypropyl cyclodextrin (BHPC) in water” value [1] is reported as “soluble”. For the same molecule, the “levels of IL-4 in eye homogenates” value [3] was “reduced”, the “RSV in the lung” value [4] was “reduced” and the “RSV mRNA or protein in the eye or the lung” value [4] was “did not increase”. The “viral load in the eye or the lung” value [4] was “did not increase” and the “levels of CysLTs in eye homogenates” value [5] was “reduced”.
For `CC(C)(C)Sc1c(CC(C)(C)C(=O)O)n(Cc2ccc(-c3ccc(F)cn3)cc2)c2ccc(OCc3ccc4ccccc4n3)cc12` [Compound F, 3-[3-tert-Butylsulfanyl-1-[4-(5-fluoro-pyridin-2-yl)-benzyl]-5-(quinolin-2-ylmethoxy)-1H-indol-2-yl]-2,2-dimethyl-propionic acid], the “solubility in 10% beta-hydroxypropyl cyclodextrin (BHPC) in water” value [1] was “formed a cloudy solution”.
For `CCC(CC)(Cc1c(SC(C)(C)C)c2cc(OCc3ccc(C)cn3)ccc2n1Cc1ccc(-c2ncc(OC)cn2)cc1)C(=O)O` [Compound G, 2-[3-tert-Butylsulfanyl-1-[4-(5-methoxy-pyrimidin-2-yl)-benzyl]-5-(5-methyl-pyridin-2-ylmethoxy)-1H-indol-2-ylmethyl]-2-ethyl-butyric acid], the “solubility in 10% beta-hydroxypropyl cyclodextrin (BHPC) in water” value [1] was “soluble”.
With `CC(=O)N1CCC[C@H]1COc1ccc2c(c1)c(SC(C)(C)C)c(CC(C)(C)C(=O)O)n2Cc1ccc(Cl)cc1` [Compound I, 3-[5-((S)-1-Acetyl-pyrrolidin-2-ylmethoxy)-3-tert-butylsulfanyl-1-(4-chloro-benzyl)-1H-indol-2-yl]-2,2-dimethyl-propionic acid] the “solubility in 10% beta-hydroxypropyl cyclodextrin (BHPC) in water” value [1] was “soluble”.
In the case of `CC(C)(C)Sc1c(CC(C)(C)C(=O)O)n(Cc2ccc(-c3ccc(F)cn3)cc2)c2ccc(OCc3ccccn3)cc12` [Compound J, 3-[3-tert-butylsulfanyl-1-[4-(5-fluoro-pyridin-2-yl)-benzyl]-5-(pyridin-2-ylmethoxy)-1H-indol-2-yl]-2,2-dimethyl-propionic acid], the “solubility in 10% beta-hydroxypropyl cyclodextrin (BHPC) in water” value [1] is reported as “soluble”.
In the case of `CCN(Cc1cc(C(F)(F)F)ccc1-c1cncc(CC(=O)O)c1)C(=O)OCc1ccccc1` [DP2 receptor antagonist], the “Plasma concentration @ trough” value [6] is reported as <10 nM.
